The values below come from publication PMC4236894, “Salicylanilide Diethyl Phosphates as Potential Inhibitors of Some Mycobacterial Enzymes” (The Scientific World Journal, 2014).

Where two headings read alike, the source gives them in different places.

As a reminder, the % inhibition is the change of the read-out against control, counted positive when it falls. Read a low % inhibition as a response near the control. As usually defined, the IC50 is the concentration that inhibits the measured activity by half. Read a low IC50 as greater potency in that assay. For orientation: inhibition means the share of the control response that was lost under treatment.

The target in test [1] is T1, L-alanine dehydrogenase (MtAlaDH) (Mycobacterium tuberculosis, UniProt P9WQB1).
T1 sequence (P9WQB1 1-371): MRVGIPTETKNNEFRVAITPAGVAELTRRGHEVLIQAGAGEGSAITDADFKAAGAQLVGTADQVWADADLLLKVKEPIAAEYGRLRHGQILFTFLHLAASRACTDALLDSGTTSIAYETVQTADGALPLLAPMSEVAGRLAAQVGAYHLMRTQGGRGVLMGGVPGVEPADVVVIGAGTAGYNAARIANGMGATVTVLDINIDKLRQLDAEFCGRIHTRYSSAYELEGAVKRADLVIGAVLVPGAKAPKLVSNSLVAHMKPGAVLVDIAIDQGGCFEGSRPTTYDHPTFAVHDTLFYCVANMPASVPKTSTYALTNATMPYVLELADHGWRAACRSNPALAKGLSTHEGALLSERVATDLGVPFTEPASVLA
In words: biochemical.

In test [2] the target is T2, Lysine ε-aminotransferase (MtLAT) (Mycobacterium tuberculosis, UniProt P9WQ77).
T2 sequence (P9WQ77 1-449): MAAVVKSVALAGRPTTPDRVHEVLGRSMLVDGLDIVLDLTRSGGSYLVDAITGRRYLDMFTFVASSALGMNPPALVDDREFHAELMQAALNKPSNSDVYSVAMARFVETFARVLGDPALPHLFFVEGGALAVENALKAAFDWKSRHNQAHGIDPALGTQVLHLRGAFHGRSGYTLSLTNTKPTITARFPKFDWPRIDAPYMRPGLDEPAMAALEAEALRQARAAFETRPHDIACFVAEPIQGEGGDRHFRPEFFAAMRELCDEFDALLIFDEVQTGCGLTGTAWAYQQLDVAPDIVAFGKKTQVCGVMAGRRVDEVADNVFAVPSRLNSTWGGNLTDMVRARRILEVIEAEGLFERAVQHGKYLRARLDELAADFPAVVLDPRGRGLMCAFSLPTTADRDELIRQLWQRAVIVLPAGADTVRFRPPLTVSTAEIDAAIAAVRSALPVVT
The test is described as follows: biochemical.

The target in the next test is T3, Chorismate mutase (MtCM) (Mycobacterium tuberculosis, UniProt P9WIB9).
T3 sequence (P9WIB9 34-199): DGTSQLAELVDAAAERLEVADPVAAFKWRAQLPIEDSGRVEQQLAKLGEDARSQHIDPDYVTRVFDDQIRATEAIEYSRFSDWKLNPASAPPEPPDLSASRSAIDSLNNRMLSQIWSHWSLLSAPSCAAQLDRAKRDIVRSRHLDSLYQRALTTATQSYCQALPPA
The test is described as follows: biochemical. The procedure:
Reaction volumes of 0.4 mL of chorismate (typically 1 mM) in 50 mM Tris HCl (pH 7.5), 0.5 mM EDTA, 0.1 mg/mL bovine serum albumin, and 10 mM β-mercaptoethanol were incubated at 37°C for 5 min. […] The reaction was allowed to proceed at 37°C and was terminated after 1 to 5 min with 0.4 mL 1 M HCl. After a further incubation at 37°C for 10 min to convert prephenate, which is formed in the enzymatic reaction, to phenylpyruvate, 0.8 mL 2.5 M NaOH was added. The absorbance of the phenylpyruvate chromophore was read at 320 nm. We set up a blank with no enzyme for every reaction to account for the nonenzymatic conversion of chorismate to prephenate and added the enzyme after the addition of NaOH. […] A description of the methods can be found in the literature.

Test [3] deals with Pantothenate synthetase (MtPS) (Mycobacterium tuberculosis, UniProt P9WIL5). In words: Mycobacterial pantothenate synthetase (MtPS) screening. It counts as biochemical. The following applies: 50 μM compound. The procedure:
Sixty microliters of the PS reagent mix was added, including NADH, pantoic acid, β-alanine, ATP, phosphoenolpyruvate, MgCl2, myokinase, pyruvate kinase, and lactate dehydrogenase in buffer, to each well of a 96-well plate. The compounds were then added to plates in 1 μL volumes. The reaction was initiated by the addition of 39 μL PS diluted in buffer. The final concentrations in the reaction were 0.4 mM NADH, 5 mM pantoic acid, 10 mM MgCl2, 5 mM β-alanine, 10 mM ATP, 1 mM potassium phosphoenolpyruvate, and 18 units/mL each of chicken muscle myokinase, rabbit muscle pyruvate kinase, and rabbit muscle lactate dehydrogenase diluted in 100 mM HEPES buffer (pH 7.8), 1% DMSO, and 5 μg/mL PS in a final volume of 100 μL. The test plate was immediately transferred to a microplate reader, and absorbance was measured at 340 nm every 12 sec for 120 sec. […] The per cent inhibition was calculated using the following formula: 100 ∗ 1 − compound rate − background rate/full reaction rate − background rate.

For test [4], the target named is mycobacterial isocitrate lyase (ICL) (Mycobacterium tuberculosis, UniProt P9WKK7). The test is described as follows: Isocitrate lyase assay (ICL1), glyoxylate phenyl hydrazone formation. Type of test: biochemical. The following applies: read-out: % ICL inhibition at 10 μM (±standard deviation). Here is the method: Isocitrate lyase activity was assayed according to the protocol reported by Dixon and Kornberg (glyoxylate phenyl hydrazone formation) at 10 µM of the investigated compounds. […] A description of the method can be found in the literature.

Another test has as its system Mtb H37Rv strain. The following applies: cited from earlier work.

Sequence of mycobacterial isocitrate lyase (ICL) (P9WKK7 whole entry): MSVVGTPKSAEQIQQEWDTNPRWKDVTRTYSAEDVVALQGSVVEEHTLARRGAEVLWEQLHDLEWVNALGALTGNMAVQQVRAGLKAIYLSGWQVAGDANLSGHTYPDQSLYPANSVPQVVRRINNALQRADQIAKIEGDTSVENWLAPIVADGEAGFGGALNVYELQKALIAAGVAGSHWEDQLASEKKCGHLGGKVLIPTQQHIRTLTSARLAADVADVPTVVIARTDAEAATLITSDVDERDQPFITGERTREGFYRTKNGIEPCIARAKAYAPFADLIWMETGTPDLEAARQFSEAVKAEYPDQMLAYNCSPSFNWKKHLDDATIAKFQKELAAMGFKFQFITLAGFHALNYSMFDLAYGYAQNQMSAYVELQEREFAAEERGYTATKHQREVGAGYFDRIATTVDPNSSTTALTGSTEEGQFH
Sequence of Pantothenate synthetase (MtPS) (P9WIL5 whole entry, looked up): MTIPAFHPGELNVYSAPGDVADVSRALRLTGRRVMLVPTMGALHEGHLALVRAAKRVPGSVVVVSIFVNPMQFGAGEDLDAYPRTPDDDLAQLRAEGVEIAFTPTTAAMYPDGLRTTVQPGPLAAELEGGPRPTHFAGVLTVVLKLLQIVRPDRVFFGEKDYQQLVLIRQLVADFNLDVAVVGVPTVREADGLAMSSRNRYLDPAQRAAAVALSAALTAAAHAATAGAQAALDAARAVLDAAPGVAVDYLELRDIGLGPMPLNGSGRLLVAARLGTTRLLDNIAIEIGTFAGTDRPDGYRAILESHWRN

Regarding `CCOP(=O)(OCC)Oc1cc(Cl)ccc1C(=O)Nc1cccc(Cl)c1` [1j], in test [1], the “% inhibition at 50 μM against L-MtAlaDH” value came to 12.30% and the half-inhibitory concentration (IC50) is over 50 µM. The “% inhibition at 50 μM against MtLAT” value in test [2] is 29.30%. Besides, on Chorismate mutase (MtCM), the “% inhibition at 50 μM against MtCM” value worked out at 54.56%. Further, the “% inhibition at 50 μM against MtPS” value in test [3] was 3.64%.

In the case of `CCOP(=O)(OCC)Oc1cc(Cl)ccc1C(=O)Nc1ccc(C(F)(F)F)cc1` [1r], in test [1], the “% inhibition at 50 μM against L-MtAlaDH” value was determined as 47.28% and the 50% inhibitory concentration (IC50) is over 50 µM. Besides, the “% inhibition at 50 μM against MtLAT” value in test [2] is recorded as 23.18%. For the same compound, the “% inhibition at 50 μM against MtCM” value at Chorismate mutase (MtCM) is reported as 50.05%.

As for `CCOP(=O)(OCC)Oc1cc(Cl)ccc1C(=O)Nc1cccc(Cl)c1` [1s, 5-Chloro-2-[(3-chlorophenyl)carbamoyl]phenyl diethyl phosphate], the inhibition at 10 µM in test [4] worked out at 6 ± 0.83%. This compound came in with a half-maximal inhibitory concentration (IC50) in test [1] of 4.96 µM. The inhibition at 50 µM in test [1] (read-out: % inhibition at 50 μM against L-MtAlaDH, 50 μM compound) was over 70%; in test [2] (read-out: % inhibition at 50 μM against MtLAT, 50 μM compound), over 50%; at Chorismate mutase (MtCM) (read-out: % inhibition at 50 μM against MtCM, 50 μM compound), over 60%; in test [3] (read-out: % inhibition at 50 μM against MtPS) it was 11.2%. The “MICs against actively growing Mtb H37Rv strain” value with Mtb H37Rv strain was 4 to 8 µM.

For `O=C(O)CC[N+](=O)[O-]` [3-Nitropropionic acid, 3-nitropropionic acid], the inhibition at 10 µM in test [4] (10 μM compound) came out at 25 ± 4.1%.

Turning to `NNC(=O)c1ccncc1` [Isoniazid], the inhibition at 10 µM in test [4] (10 μM compound) came out at 0%.
